The results in this text go back to PubChem BioAssay (NCI).

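The compound was tested at five concentrations on cells cultured in 96-well plates, with a 48-hour exposure period. At the GI50, growth is halved. TGI denotes the concentration required for complete inhibition of growth.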 Bounds are passed on as bounds.

Test systems include EKVX NSCLC; TK-10 renal; HL-60(TB) leukemia; UACC-257 melanoma; OVCAR-4 ovarian; CCRF-CEM leukemia; HOP-62 NSCLC; HCC-2998 colon; MCF7 breast; SF-539 CNS.
Holding throughout (experiment): DTP human tumour cell line panel, 48 h

The term GI50 denotes the concentration that inhibits growth by half. In general, TGI refers to the concentration giving total growth inhibition. Regarding `Clc1ccc2nnnn2n1`, the GI50 in the experiment on EKVX NSCLC was 18 µM; in the experiment with TK-10 renal, 3.5 µM; with HL-60(TB) leukemia, 1.94 µM; in the experiment with UACC-257 melanoma it was 16.1 µM; in the experiment on OVCAR-4 ovarian, 5.21 µM; in the experiment with CCRF-CEM leukemia, 3.74 µM. Further, the GI50 was 4.51 µM in the experiment with HOP-62 NSCLC, 16.9 µM in the experiment on HCC-2998 colon and 3.11 µM in the experiment on MCF7 breast. In addition, the TGI in the experiment on EKVX NSCLC came to 62.3 µM; in the experiment on TK-10 renal it was 23.6 µM; in the experiment on HL-60(TB) leukemia, 5.14 µM; in the experiment with UACC-257 melanoma it was 56.9 µM; in the experiment on OVCAR-4 ovarian it was 17.7 µM; in the experiment with CCRF-CEM leukemia, 29.8 µM. For the same compound, the TGI in the experiment on HOP-62 NSCLC was determined as 33.1 µM; with HCC-2998 colon, 40.6 µM; in the experiment on MCF7 breast, 14.3 µM.

As to `COc1ccc(S(=O)(=O)Nc2cc(/C=C\c3cc(OC)c(OC)c(OC)c3)ccc2OC)cc1`, the GI50 in the experiment on TK-10 renal is 0.0768 µM; in the experiment with SF-539 CNS it was 0.126 µM; with HL-60(TB) leukemia, 0.195 µM; in the experiment with UACC-257 melanoma, 2.98 µM; in the experiment on OVCAR-4 ovarian, 0.581 µM; in the experiment on CCRF-CEM leukemia, 0.176 µM. In addition, the GI50 in the experiment on HOP-62 NSCLC is 0.041 µM; in the experiment with HCC-2998 colon, 0.442 µM; with MCF7 breast, 0.0426 µM. Moreover, the TGI with TK-10 renal is 11.5 µM; with SF-539 CNS, 0.713 µM; in the experiment with HL-60(TB) leukemia, 0.681 µM; in the experiment with UACC-257 melanoma it was 93.4 µM; in the experiment with OVCAR-4 ovarian it was over 100 µM; with CCRF-CEM leukemia, over 100 µM. For the same compound, the TGI in the experiment on HOP-62 NSCLC, in the experiment with HCC-2998 colon and in the experiment with MCF7 breast was over 100 µM throughout.

For `COc1cc(Cl)cc(-c2nn(-c3cccc(NC(=O)Nc4cc(C(F)(F)F)cc(C(F)(F)F)c4)c3)cc2-c2ccncc2)c1`, the GI50 is 0.684 µM with TK-10 renal; 1.48 µM in the experiment on SF-539 CNS; 0.32 µM in the experiment on HL-60(TB) leukemia; 0.686 µM with UACC-257 melanoma; 0.581 µM with OVCAR-4 ovarian; 0.312 µM with CCRF-CEM leukemia. For the same compound, the GI50 is 0.851 µM in the experiment with HOP-62 NSCLC, 0.963 µM in the experiment with HCC-2998 colon and 0.439 µM in the experiment on MCF7 breast. For the same compound, the TGI in the experiment on TK-10 renal was determined as 14.6 µM; in the experiment on SF-539 CNS, 3.61 µM; in the experiment with HL-60(TB) leukemia, 2.49 µM; in the experiment with UACC-257 melanoma, 2.68 µM; in the experiment on OVCAR-4 ovarian, 17.5 µM; in the experiment on CCRF-CEM leukemia, 1.52 µM. Besides, the TGI with HOP-62 NSCLC came out at 2.6 µM; with HCC-2998 colon, 5.42 µM; in the experiment with MCF7 breast it was 9.3 µM.

Take `CC(=O)OCC(=O)[C@@]12OC(C)(C)O[C@@H]1C[C@H]1[C@@H]3CC=C4C[C@@H](O)CC[C@]4(C)[C@H]3CC[C@@]12C`: the TGI in the experiment with EKVX NSCLC is over 100 µM; with TK-10 renal, over 100 µM; in the experiment on SF-539 CNS, 74.7 µM; with HL-60(TB) leukemia, over 100 µM; in the experiment with UACC-257 melanoma, over 100 µM; in the experiment on OVCAR-4 ovarian, over 100 µM. The TGI with CCRF-CEM leukemia, with HOP-62 NSCLC and in the experiment on MCF7 breast was over 100 µM in each case.

For the compound `COc1ccc(/C(=N\O)c2cc(C)c(OC)c(C)c2)cc1O`, the GI50 with EKVX NSCLC is 0.0613 µM; with TK-10 renal it was 0.078 µM; in the experiment on HL-60(TB) leukemia, 0.011 µM; with OVCAR-4 ovarian it was 0.0279 µM; in the experiment on CCRF-CEM leukemia it was 0.0185 µM; in the experiment with HOP-62 NSCLC it was 0.0215 µM. Moreover, the values for the GI50 in the experiment with HCC-2998 colon and with MCF7 breast were 0.0279 µM and under 0.01 µM, respectively. In addition, the TGI is over 100 µM in the experiment on EKVX NSCLC; over 100 µM in the experiment with TK-10 renal; 0.0607 µM in the experiment with HL-60(TB) leukemia; over 100 µM in the experiment with OVCAR-4 ovarian; over 100 µM in the experiment on CCRF-CEM leukemia; over 100 µM in the experiment with HOP-62 NSCLC. For the same compound, the TGI in the experiment with HCC-2998 colon and in the experiment with MCF7 breast was over 100 µM in each case.

Consider `Cc1ccc2nc(-c3ccccc3)c(N=O)n2c1`, for which the TGI in the experiment with EKVX NSCLC is 79.5 µM; in the experiment with TK-10 renal, over 100 µM; with SF-539 CNS, 92.7 µM; in the experiment on UACC-257 melanoma, over 100 µM; in the experiment with OVCAR-4 ovarian it was over 100 µM; in the experiment on CCRF-CEM leukemia, over 100 µM. In addition, the TGI with HOP-62 NSCLC and in the experiment on MCF7 breast was over 100 µM each time.

For the compound `CC(C)c1c(O)ccc2c1CCC1C(C)(C)CCCC21C` (stereo not given), the total growth inhibition concentration (TGI) in the experiment with EKVX NSCLC is 31.7 µM; with TK-10 renal it was 35.8 µM; in the experiment with SF-539 CNS, 34 µM; in the experiment with HL-60(TB) leukemia, 52.3 µM; in the experiment with UACC-257 melanoma, 32.2 µM; in the experiment on OVCAR-4 ovarian, 32.9 µM. Further, the figures for the concentration for total growth inhibition (TGI) with CCRF-CEM leukemia, with HCC-2998 colon and in the experiment with MCF7 breast were 49.3 µM, 37.2 µM and 35.3 µM, respectively.

Turning to `CCC[CH2][Sn]([CH2]CCC)([CH2]CCC)[O]C(=O)c1ccc(Cl)cc1Cl`, the GI50 was 0.099 µM in the experiment with EKVX NSCLC; 0.132 µM in the experiment on TK-10 renal; 0.172 µM with SF-539 CNS; 0.187 µM with HL-60(TB) leukemia; 0.155 µM with UACC-257 melanoma; 0.0958 µM with OVCAR-4 ovarian. In addition, the GI50 in the experiment on HOP-62 NSCLC was 0.164 µM; with HCC-2998 colon it was 0.168 µM; in the experiment with MCF7 breast, 0.137 µM. The TGI with EKVX NSCLC is 0.273 µM; in the experiment with TK-10 renal, 0.267 µM; with SF-539 CNS, 0.327 µM; in the experiment with HL-60(TB) leukemia, 0.494 µM; in the experiment with UACC-257 melanoma, 0.313 µM; in the experiment on OVCAR-4 ovarian it was 0.226 µM. For the same compound, the TGI in the experiment on HOP-62 NSCLC was determined as 0.319 µM; in the experiment with HCC-2998 colon, 0.31 µM; with MCF7 breast, 0.278 µM.

With `CNC(=O)CC1NC(=O)c2csc(n2)-c2ccc(-c3nc(C4=NC(C(=O)N5CCCC5C(N)=O)CO4)cs3)nc2-c2csc(n2)-c2csc(n2)C(C(C)C)NC(=O)CNC(=O)c2csc(n2)C(C(C)C)NC(=O)c2nc1sc2C` (stereo not given), the GI50 was over 25 µM in the experiment on EKVX NSCLC; over 25 µM with TK-10 renal; over 25 µM with SF-539 CNS; under 0.001 µM with HL-60(TB) leukemia; over 25 µM in the experiment on UACC-257 melanoma; over 25 µM in the experiment with OVCAR-4 ovarian. Moreover, the GI50 was over 25 µM in the experiment with CCRF-CEM leukemia and under 0.001 µM in the experiment on MCF7 breast. In addition, the TGI in the experiment with EKVX NSCLC was over 25 µM; in the experiment on UACC-257 melanoma it was over 25 µM; with OVCAR-4 ovarian it was over 25 µM; with CCRF-CEM leukemia, over 25 µM; in the experiment with HCC-2998 colon it was 2.31 µM.

With `Nc1c([N+](=O)[O-])cc2c3c(cccc13)CC2`, the TGI with EKVX NSCLC, in the experiment on TK-10 renal, in the experiment with SF-539 CNS, with HL-60(TB) leukemia, in the experiment with UACC-257 melanoma and with OVCAR-4 ovarian was over 100 µM each time. The concentration for total growth inhibition (TGI) with CCRF-CEM leukemia, in the experiment on HOP-62 NSCLC and in the experiment on HCC-2998 colon was over 100 µM throughout.

With `O=C1C2C(c3ccccc3)NC(c3ccccc3)C1C(c1ccccc1)NC2c1ccccc1` (stereo not given), the TGI in the experiment with EKVX NSCLC, in the experiment with TK-10 renal, in the experiment on SF-539 CNS, in the experiment on HL-60(TB) leukemia, in the experiment with UACC-257 melanoma and in the experiment with OVCAR-4 ovarian was over 100 µM in each case. Further, the TGI with CCRF-CEM leukemia, in the experiment on HOP-62 NSCLC and in the experiment on MCF7 breast was over 100 µM each time.
